# Tested on: TDP-43 aggregation in PC12 cells stably expressing GFP-tagged mutant TDP-43 (TDP-43^Q33IK::eGFP)
# Experiment: In vitro efficacy assay: inhibition of TDP-43 inclusions, concentration-response, fluorescence microscopy
# Format: cell-based
# Settings: Rattus norvegicus, PC-12, PC12 cells, 1 hour pre-treatment, 15 μM sodium arsenite for 23 hours, 10-point dose response curve
# Protocol: Exemplary compounds of the invention were evaluated for efficacy in inhibiting TDP-43 inclusions using a concentration-response assay. Briefly, PC12 cells stably expressing a GFP-tagged mutant form of TDP-43 (TDP-43^Q33IK::eGFP) were pre-treated for 1 hour with exemplary compounds and stressed with 15 μM sodium arsenite for 23 hours to induce TDP-43 aggregation. The inhibitory effect on TDP-43 aggregation was measured using fluorescence microscopy. The ratio of cells with TDP-43 aggregates was calculated based on the total number of cells with detectable GFP expression. In the table, “A” indicates an IC50 of less than 100 nM, “B” indicates an IC50 range from 100 nM to 500 nM; “C” indicates an IC50 range from 500 nM to 2 μM; and “D” indicates an IC50 greater than 2 μM.
row,IC50,Structure (SMILES)
1,> 2000 nM,"CCN(C(=O)c1cc2ccccc2[nH]1)[C@H]1COC[C@H](NCc2ccccc2)C1 [Compound 301, N-((3R,5R)-5-(benzylamino)tetrahydro-2H-pyran-3-yl)-N-ethyl-1H-indole-2-carboxamide]"
2,> 2000 nM,O=C(c1cc2ccccc2[nH]1)N(CC(F)(F)F)[C@H]1COC[C@H](NCc2ccccc2)C1 [Compound 303]
3,500 to 2000 nM,"C#Cc1ccc(C(=O)c2cccc(CN[C@@H]3CCC[C@H](N(CC)C(=O)c4cc5ccccc5[nH]4)C3)c2)cc1 [Compound 312, N-ethyl-N-((1S,3R)-3-((3-(4-ethynylbenzoyl)benzyl)-amino)cyclohexyl)-1H-indole-2-carboxamide]"
4,< 100 nM,CCN(C(=O)c1cc2ccccc2[nH]1)[C@H]1CCC[C@@H](NCc2ccc(N=[N+]=[N-])cc2)C1 [Compound 317]
5,< 100 nM,"CCN(C(=O)c1nc2ccccc2[nH]1)[C@H]1CCC[C@@H](NCc2ccccc2)C1 [Compound 400, N-((1S,3R)-3-(benzylamino)cyclohexyl)-N-ethyl-1H-benzo[d]imidazole-2-carboxamide]"
6,100 to 500 nM,CCN(C(=O)c1cc2cnccc2[nH]1)[C@H]1CCC[C@@H](NCc2ccccc2)C1 [Compound 401]
7,> 2000 nM,CCN(C(=O)c1ccccc1)[C@H]1CCC[C@@H](NCc2ccccc2)C1 [Compound 405]
8,< 100 nM,CCN(C(=O)c1cc2ncccc2[nH]1)[C@H]1CCC[C@H](NC(C)(C)c2ccccc2)C1 [Compound 411]
9,100 to 500 nM,CCN(C(=O)c1cc2ccccc2[nH]1)[C@H]1CCC[C@@H](NC2(c3ccccc3)CC2)C1 [Compound 419]
10,< 100 nM,"COc1ccc(C(C)(C)N[C@@H]2CCC[C@H](N(CC(F)(F)F)C(=O)c3cc4ncccc4[nH]3)C2)cc1 [Compound 424, N-((1S,3R)-3-((2-(4-methoxyphenyl)propan-2-yl)amino)cyclohexyl)-N-(2,2,2-trifluoroethyl)-1H-pyrrolo[3,2-b]pyridine-2-carboxamide]"
11,100 to 500 nM,"C#CCCC1(CCOc2ccc(CN[C@@H]3CCC[C@H](N(CC)C(=O)c4cc5ccccc5[nH]4)C3)cc2)N=N1 [Compound 425, N-((1S,3R)-3-((4-(2-(3-(but-3-yn-1-yl)-3H-diazirin-3-yl)ethoxy)benzyl)amino)cyclohexyl)-N-ethyl-1H-indole-2-carboxamide]"
12,< 100 nM,CCN(C(=O)c1cc2ccccc2[nH]1)[C@H]1CCC[C@@H](NCc2ccc(OC(F)(F)F)cc2)C1 [Compound 429]
13,100 to 500 nM,CCN(C(=O)c1cc2ccccc2[nH]1)[C@H]1CCC[C@@H](NCc2ccc(S(C)(=O)=O)cc2)C1 [Compound 432]
14,< 100 nM,CCN(C(=O)c1cc2ccccc2[nH]1)[C@H]1CCC[C@@H](NCc2cc3cc(F)ccc3o2)C1 [Compound 433]
15,> 2000 nM,CCN(C(=O)c1cc2ncccc2[nH]1)[C@H]1CCC[C@@H](NCc2ccnc(O)c2)C1 [Compound 434]
16,< 100 nM,CCN(C(=O)c1cc2ncccc2[nH]1)[C@H]1CCC[C@@H](NCc2cc(C3CC3)on2)C1 [Compound 436]
17,> 2000 nM,CCN(C(=O)c1cc2ncccc2[nH]1)[C@H]1CCC[C@@H](NCc2cnoc2)C1 [Compound 438]
18,< 100 nM,CCN(C(=O)c1cc2ncccc2[nH]1)[C@H]1CCC[C@@H](NCc2ccnc(OC)c2)C1 [Compound 440]
19,< 100 nM,CCN(C(=O)c1cc2ncccc2[nH]1)[C@H]1CCC[C@@H](NCc2ccc3nsnc3c2)C1 [Compound 442]
20,100 to 500 nM,CCN(C(=O)c1cc2ncccc2[nH]1)[C@H]1CCC[C@@H](NCc2cc(C)on2)C1 [Compound 445]
21,500 to 2000 nM,CCN(C(=O)c1cc2ncccc2[nH]1)[C@H]1CCC[C@@H](NCc2nccs2)C1 [Compound 446]
22,< 100 nM,CCN(C(=O)c1cc2ncccc2[nH]1)[C@H]1CCC[C@@H](NCc2cnn(C)c2)C1 [Compound 448]

# The next lines start with the compound.
row,Structure (SMILES),IC50
1,O=C(c1cc2ccccc2[nH]1)N(CC(F)(F)F)[C@H]1COC[C@@H](NCc2ccccc2)C1 [Compound 302],100 to 500 nM
2,"CCN(C(=O)c1cc2ccccc2[nH]1)[C@@H]1C[C@H](NCc2ccccc2)CS(=O)(=O)C1 [Compound 313, N-((3R,5S)-5-(benzylamino)-1,1-dioxidotetrahydro-2H-thiopyran-3-yl)-N-ethyl-1H-indole-2-carboxamide]",> 2000 nM
3,"CCN(C(=O)c1cc2ccccc2[nH]1)[C@@H]1C[C@@H](NCc2ccccc2)CS(=O)(=O)C1 [Compound 314, N-((3R,5R)-5-(benzylamino)-1,1-dioxidotetrahydro-2H-thiopyran-3-yl)-N-ethyl-1H-indole-2-carboxamide]",> 2000 nM
4,"CCN(C(=O)c1cc2ccccc2[nH]1)[C@H]1CCC[C@@H](NCc2cccc(N=[N+]=[N-])c2)C1 [Compound 316, N-((1S,3R)-3-((3-azidobenzyl)amino)cyclohexyl)-N-ethyl-1H-indole-2-carboxamide]",< 100 nM
5,"CCN(C(=O)c1cc2ccccc2[nH]1)[C@H]1CCC[C@@H](NC2(c3ccccc3)COC2)C1 [Compound 318, N-ethyl-N-((1S,3R)-3-((3-phenyloxetan-3-yl)amino)cyclohexyl)-1H-indole-2-carboxamide]",500 to 2000 nM
6,CCN(C(=O)c1[nH]c2ccccc2c1C)[C@H]1CCC[C@@H](NCc2ccccc2)C1 [Compound 402],< 100 nM
7,CCN(C(=O)c1cc2ccncc2[nH]1)[C@H]1CCC[C@@H](NCc2ccccc2)C1 [Compound 403],100 to 500 nM
8,CCN(C(=O)c1ccccn1)[C@H]1CCC[C@@H](NCc2ccccc2)C1 [Compound 404],> 2000 nM
9,"CCN(C(=O)c1cc2ncccc2[nH]1)[C@H]1CCC[C@@H](NCc2cccc(N=[N+]=[N-])c2)C1 [Compound 406, N-((1S,3R)-3-((3-azidobenzyl)amino)cyclohexyl)-N-ethyl-1H-pyrrolo[3,2-b]pyridine-2-carboxamide]",< 100 nM
10,CCN(C(=O)c1cc2ncccc2[nH]1)[C@H]1CCC[C@@H](NCc2ccc(N=[N+]=[N-])cc2)C1 [Compound 407],< 100 nM
11,CCN(C(=O)c1cc2ncccc2[nH]1)[C@H]1CCC[C@@H](NC(C)(C)c2ccc(OC)cc2)C1 [Compound 408],< 100 nM
12,CCN(C(=O)c1cc2ncccc2[nH]1)[C@H]1CCC[C@H](NC(C)(C)c2ccc(OC)cc2)C1 [Compound 409],500 to 2000 nM
13,CCN(C(=O)c1cc2ncccc2[nH]1)[C@H]1CCC[C@@H](NC(C)(C)c2ccc(F)cc2)C1 [Compound 410],< 100 nM
14,CCN(C(=O)c1cc2ccccc2[nH]1)[C@H]1CCC[C@@H](N[C@H](c2ccccc2)C(F)(F)F)C1 [Compound 414],500 to 2000 nM
15,CCN(C(=O)c1cc2ccccc2[nH]1)[C@H]1CCC[C@@H](N[C@@H](c2ccccc2)C(F)(F)F)C1 [Compound 415],> 2000 nM
16,"CCN(C(=O)c1cc2ncccc2[nH]1)[C@H]1CCC[C@@H](NC2(c3ccccc3)CC2)C1 [Compound 418, N-ethyl-N-((1S,3R)-3-((1-phenylcyclopropyl)amino)cyclohexyl)-1H-pyrrolo[3,2-b]pyridine-2-carboxamide]",100 to 500 nM
17,CCN(C(=O)c1cc2ncccc2[nH]1)[C@H]1CCC[C@H](NC2(c3ccccc3)CC2)C1 [Compound 420],500 to 2000 nM

row,Structure (SMILES),IC50
1,CCN(C(=O)c1cc2ccccc2[nH]1)[C@H]1CCC[C@H](NC2(c3ccccc3)CC2)C1 [Compound 421],> 2000 nM
2,"O=C(c1cc2ncccc2[nH]1)N(CC(F)(F)F)[C@H]1CCC[C@@H](NCc2cccc(F)c2)C1 [Compound 422, N-((1S,3R)-3-((3-fluorobenzyl)amino)cyclohexyl)-N-(2,2,2-trifluoroethyl)-1H-pyrrolo[3,2-b]pyridine-2-carboxamide]",< 100 nM
3,O=C(c1cc2ncccc2[nH]1)N(CC(F)(F)F)[C@H]1CCC[C@@H](NCc2ccc(F)cc2)C1 [Compound 423],< 100 nM
4,C#CCCC1(CCOc2cccc(CN[C@@H]3CCC[C@H](N(CC)C(=O)c4cc5ccccc5[nH]4)C3)c2)N=N1 [Compound 426],< 100 nM
5,CCN(C(=O)c1cc2ccccc2[nH]1)[C@H]1CCC[C@@H](NCc2cccc(O)c2)C1 [Compound 427],< 100 nM
6,CCN(C(=O)c1cc2ccccc2[nH]1)[C@H]1CCC[C@@H](NCc2ccc(O)cc2)C1 [Compound 428],< 100 nM
7,CCN(C(=O)c1cc2ccccc2[nH]1)[C@H]1CCC[C@@H](NCc2cccc(OC(F)(F)F)c2)C1 [Compound 430],< 100 nM
8,CCN(C(=O)c1cc2ccccc2[nH]1)[C@H]1CCC[C@@H](NCc2cccc(S(C)(=O)=O)c2)C1 [Compound 431],< 100 nM
9,CCN(C(=O)c1cc2ncccc2[nH]1)[C@H]1CCC[C@@H](NCc2cc(C3CC3)no2)C1 [Compound 435],< 100 nM
10,CCN(C(=O)c1cc2ncccc2[nH]1)[C@H]1CCC[C@@H](NCc2cc(C)no2)C1 [Compound 437],< 100 nM
11,CCN(C(=O)c1cc2ncccc2[nH]1)[C@H]1CCC[C@@H](NCc2nnc(C)s2)C1 [Compound 439],> 2000 nM
12,CCN(C(=O)c1cc2ncccc2[nH]1)[C@H]1CCC[C@@H](NCc2ccc3ncoc3c2)C1 [Compound 441],< 100 nM
13,CCN(C(=O)c1cc2ncccc2[nH]1)[C@H]1CCC[C@@H](NCc2ccc3ocnc3c2)C1 [Compound 443],< 100 nM
14,CCN(C(=O)c1cc2ncccc2[nH]1)[C@H]1CCC[C@@H](NCc2cc3ccccc3o2)C1 [Compound 444],< 100 nM
15,CCN(C(=O)c1cc2ncccc2[nH]1)[C@H]1CCC[C@@H](NCc2c[nH]cn2)C1 [Compound 447],100 to 500 nM
16,CCN(C(=O)c1cc2ccccc2[nH]1)[C@H]1CCC[C@@H](NCc2oc3ccccc3c2C)C1 [Compound 449],< 100 nM
17,CCN(C(=O)c1cc2ccccc2[nH]1)[C@H]1CCC[C@@H](NCc2cc3ccccc3s2)C1 [Compound 450],< 100 nM
